Results: ChEMBL document CHEMBL4251615, “Discovery of anilino-furo[2,3-d]pyrimidine derivatives as dual inhibitors of EGFR/HER2 tyrosine kinase and their anticancer activity” (Eur J Med Chem, 2018)

System: A549
Test: Cytotoxicity against human A549 cells assessed as reduction in cell viability after 72 hrs by MTT assay
Type: functional, cell-based
Details: A549, 72 h

| SMILES | IC50 |
| --- | --- |
| Cc1cccc(Nc2ncnc3oc(C)c(C(=O)O)c23)c1 | 100 µM |
| Cc1cccc(Nc2ncnc3oc(C)c(CO)c23)c1 | 24 µM |
| Cc1oc2ncnc(Nc3cccc(Br)c3)c2c1C(=O)NCCO | 17.4 µM |
| CCOC(=O)c1c(C)oc2ncnc(Nc3ccc(OCc4ccccc4)cc3)c12 | > 1000 µM |
| CCOC(=O)c1c(C)oc2ncnc(Nc3ccccc3)c12 | > 1000 µM |
| CCCNC(=O)c1c(C)oc2ncnc(Nc3cccc(C)c3)c12 | > 1000 µM |
| Cc1oc2ncnc(Nc3cccc(Br)c3)c2c1CO | 102 µM |
| CCOC(=O)c1c(C)oc2ncnc(Nc3ccc(OCc4cccc(Cl)c4)cc3)c12 | 513 µM |
| CCOC(=O)c1c(C)oc2ncnc(Nc3cccc(C)c3)c12 | > 1000 µM |
| Cc1oc2ncnc(Nc3cccc(Cl)c3)c2c1C(=O)NC(C)C | > 1000 µM |
| CCOC(=O)c1c(C)oc2ncnc(Nc3ccc(OCc4ccc(C)cc4)cc3)c12 | > 1000 µM |

System: MCF7
Test: Cytotoxicity against human MCF7 cells assessed as reduction in cell viability after 72 hrs by MTT assay
Type: functional, cell-based
Details: MCF7, 72 h

| SMILES | IC50 |
| --- | --- |
| Cc1cccc(Nc2ncnc3oc(C)c(C(=O)O)c23)c1 | 57.5 µM |
| Cc1cccc(Nc2ncnc3oc(C)c(CO)c23)c1 | 17 µM |
| Cc1oc2ncnc(Nc3cccc(Br)c3)c2c1C(=O)NCCO | 22 µM |
| CCOC(=O)c1c(C)oc2ncnc(Nc3ccc(OCc4ccccc4)cc3)c12 | > 1000 µM |
| CCOC(=O)c1c(C)oc2ncnc(Nc3ccccc3)c12 | 851 µM |
| CCCNC(=O)c1c(C)oc2ncnc(Nc3cccc(C)c3)c12 | > 1000 µM |
| Cc1oc2ncnc(Nc3cccc(Br)c3)c2c1CO | 11 µM |
| CCOC(=O)c1c(C)oc2ncnc(Nc3ccc(OCc4cccc(Cl)c4)cc3)c12 | 54 µM |
| CCOC(=O)c1c(C)oc2ncnc(Nc3cccc(C)c3)c12 | > 1000 µM |
| Cc1oc2ncnc(Nc3cccc(Cl)c3)c2c1C(=O)NC(C)C | 190 µM |
| CCOC(=O)c1c(C)oc2ncnc(Nc3ccc(OCc4ccc(C)cc4)cc3)c12 | > 1000 µM |

Biological target: Epidermal growth factor receptor (Homo sapiens, UniProt P00533)
Sequence (P00533 whole entry, the tested form may be a part): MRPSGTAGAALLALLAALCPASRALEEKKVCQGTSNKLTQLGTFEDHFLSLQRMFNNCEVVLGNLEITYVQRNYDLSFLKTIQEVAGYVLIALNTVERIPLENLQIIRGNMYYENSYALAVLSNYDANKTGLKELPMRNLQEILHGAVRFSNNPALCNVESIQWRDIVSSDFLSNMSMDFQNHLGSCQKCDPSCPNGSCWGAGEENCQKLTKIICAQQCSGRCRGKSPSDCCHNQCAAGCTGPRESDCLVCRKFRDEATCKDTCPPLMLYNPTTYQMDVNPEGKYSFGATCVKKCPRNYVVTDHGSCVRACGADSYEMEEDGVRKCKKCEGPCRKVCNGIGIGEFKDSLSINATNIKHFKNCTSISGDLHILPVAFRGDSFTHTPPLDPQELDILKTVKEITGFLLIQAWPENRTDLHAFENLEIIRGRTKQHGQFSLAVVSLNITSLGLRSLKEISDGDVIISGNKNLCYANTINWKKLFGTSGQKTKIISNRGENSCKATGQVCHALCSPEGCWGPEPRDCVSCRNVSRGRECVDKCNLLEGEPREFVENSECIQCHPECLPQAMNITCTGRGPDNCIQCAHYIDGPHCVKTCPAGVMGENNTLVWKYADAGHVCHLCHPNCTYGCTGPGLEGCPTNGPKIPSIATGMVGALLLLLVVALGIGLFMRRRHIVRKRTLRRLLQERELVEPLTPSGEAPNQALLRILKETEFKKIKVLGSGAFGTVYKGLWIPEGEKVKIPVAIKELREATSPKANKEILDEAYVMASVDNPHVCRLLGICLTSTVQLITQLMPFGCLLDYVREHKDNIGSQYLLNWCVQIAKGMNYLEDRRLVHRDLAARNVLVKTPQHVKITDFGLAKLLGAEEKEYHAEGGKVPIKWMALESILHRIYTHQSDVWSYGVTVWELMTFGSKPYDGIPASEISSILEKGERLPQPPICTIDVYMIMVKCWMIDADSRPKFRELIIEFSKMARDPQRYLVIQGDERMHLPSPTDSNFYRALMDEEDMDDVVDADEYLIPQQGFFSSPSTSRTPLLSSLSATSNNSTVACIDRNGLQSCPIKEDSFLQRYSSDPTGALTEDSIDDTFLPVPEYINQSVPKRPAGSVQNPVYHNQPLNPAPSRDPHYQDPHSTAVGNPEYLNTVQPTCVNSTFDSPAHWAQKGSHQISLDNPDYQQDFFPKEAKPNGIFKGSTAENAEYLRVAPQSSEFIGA
Test: Inhibition of recombinant human C-terminal His/N-terminal GST-tagged EGFR (668 to 1210 residues) expressed in baculovirus infected Sf9 cells at 10 uM using biotin-labeled poly[Glu:Tyr] (4:1) as substrate after 30 mins by Kinase-Glo plus luminescence assay relative to control
Details: not given

| SMILES | inhibition |
| --- | --- |
| CCOC(=O)c1c(C)oc2ncnc(Nc3ccc(OCc4ccccc4)cc3)c12 | 10% |
| CCOC(=O)c1c(C)oc2ncnc(Nc3ccccc3)c12 | 22% |
| CCOC(=O)c1c(C)oc2ncnc(Nc3ccc(OCc4cccc(Cl)c4)cc3)c12 | 5% |
| Cc1oc2ncnc(Nc3cccc(Cl)c3)c2c1C(=O)NC(C)C | 21% |
| CCOC(=O)c1c(C)oc2ncnc(Nc3ccc(OCc4ccc(C)cc4)cc3)c12 | 6% |

Further lines, results first:

| inhibition | SMILES |
| --- | --- |
| 58% | Cc1cccc(Nc2ncnc3oc(C)c(C(=O)O)c23)c1 |
| 72% | Cc1cccc(Nc2ncnc3oc(C)c(CO)c23)c1 |
| 73% | Cc1oc2ncnc(Nc3cccc(Br)c3)c2c1C(=O)NCCO |
| 20% | CCCNC(=O)c1c(C)oc2ncnc(Nc3cccc(C)c3)c12 |
| 70% | Cc1oc2ncnc(Nc3cccc(Br)c3)c2c1CO |
| 52% | CCOC(=O)c1c(C)oc2ncnc(Nc3cccc(C)c3)c12 |

Biological target: Receptor tyrosine-protein kinase erbB-2 (Homo sapiens) (UniProt P04626)
Sequence (P04626 whole entry, the tested form may be a part): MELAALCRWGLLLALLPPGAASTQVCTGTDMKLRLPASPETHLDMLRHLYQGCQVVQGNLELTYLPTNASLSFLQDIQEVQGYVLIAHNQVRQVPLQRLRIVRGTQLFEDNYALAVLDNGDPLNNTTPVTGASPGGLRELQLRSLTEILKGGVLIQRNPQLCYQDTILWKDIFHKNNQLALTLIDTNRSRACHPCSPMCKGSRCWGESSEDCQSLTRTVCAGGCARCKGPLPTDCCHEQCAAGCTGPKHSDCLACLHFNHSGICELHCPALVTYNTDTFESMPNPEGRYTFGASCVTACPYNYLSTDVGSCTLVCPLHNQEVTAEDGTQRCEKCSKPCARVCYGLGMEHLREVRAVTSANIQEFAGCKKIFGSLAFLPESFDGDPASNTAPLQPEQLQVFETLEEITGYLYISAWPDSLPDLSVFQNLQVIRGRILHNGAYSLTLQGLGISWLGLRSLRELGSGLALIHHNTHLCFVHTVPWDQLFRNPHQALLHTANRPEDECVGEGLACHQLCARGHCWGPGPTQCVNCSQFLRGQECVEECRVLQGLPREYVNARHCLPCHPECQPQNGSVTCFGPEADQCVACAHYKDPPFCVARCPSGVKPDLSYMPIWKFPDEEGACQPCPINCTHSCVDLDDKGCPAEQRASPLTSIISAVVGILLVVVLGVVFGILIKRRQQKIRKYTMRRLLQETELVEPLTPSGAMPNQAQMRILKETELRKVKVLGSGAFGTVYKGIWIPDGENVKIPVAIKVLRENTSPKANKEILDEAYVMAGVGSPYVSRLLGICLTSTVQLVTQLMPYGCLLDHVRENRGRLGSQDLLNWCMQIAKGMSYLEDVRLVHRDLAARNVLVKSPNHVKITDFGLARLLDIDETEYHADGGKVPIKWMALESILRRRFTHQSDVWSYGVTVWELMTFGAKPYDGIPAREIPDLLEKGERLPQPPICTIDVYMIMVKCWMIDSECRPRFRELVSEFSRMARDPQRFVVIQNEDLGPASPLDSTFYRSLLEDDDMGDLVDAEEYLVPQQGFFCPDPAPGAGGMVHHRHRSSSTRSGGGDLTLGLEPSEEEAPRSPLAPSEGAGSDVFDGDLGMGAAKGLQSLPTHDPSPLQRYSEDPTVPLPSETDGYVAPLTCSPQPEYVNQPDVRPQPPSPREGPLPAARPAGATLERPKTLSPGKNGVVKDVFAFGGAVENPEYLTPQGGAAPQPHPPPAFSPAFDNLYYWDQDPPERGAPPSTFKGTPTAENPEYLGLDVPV
Test: Inhibition of recombinant human N-terminal GST-tagged HER2 (679 to 1255 residues) expressed in baculovirus infected Sf9 cells at 10 uM using poly[Glu:Tyr] (4:1) as substrate after 40 mins by Kinase-Glo plus luminescence assay relative to control
Details: not given

| inhibition | SMILES |
| --- | --- |
| 3% | CCOC(=O)c1c(C)oc2ncnc(Nc3ccc(OCc4ccccc4)cc3)c12 |
| 7% | CCOC(=O)c1c(C)oc2ncnc(Nc3ccc(OCc4cccc(Cl)c4)cc3)c12 |
| 20% | CCOC(=O)c1c(C)oc2ncnc(Nc3ccc(OCc4ccc(C)cc4)cc3)c12 |
